Laboratory results: paper PMC8881610 (Nature Communications, 2022)
Numbering of substitutions follows the chain as printed.

What was measured:
Assay in all cases: Whole-cell binding assay, competition with 125I-GIP1-42
Design in all cases: acylated tirzepatide to the full-length or modified; Flag; expressed in transfected cells
GIPR [1] = biological target: T1, GIPR (Homo sapiens, UniProt P48546, D191A/Q138A/R196A); conditions: GIPR Q138A/D191A/R196A, CHO-K1
T1 sequence (P48546 22-466 Q138A/D191A/R196A): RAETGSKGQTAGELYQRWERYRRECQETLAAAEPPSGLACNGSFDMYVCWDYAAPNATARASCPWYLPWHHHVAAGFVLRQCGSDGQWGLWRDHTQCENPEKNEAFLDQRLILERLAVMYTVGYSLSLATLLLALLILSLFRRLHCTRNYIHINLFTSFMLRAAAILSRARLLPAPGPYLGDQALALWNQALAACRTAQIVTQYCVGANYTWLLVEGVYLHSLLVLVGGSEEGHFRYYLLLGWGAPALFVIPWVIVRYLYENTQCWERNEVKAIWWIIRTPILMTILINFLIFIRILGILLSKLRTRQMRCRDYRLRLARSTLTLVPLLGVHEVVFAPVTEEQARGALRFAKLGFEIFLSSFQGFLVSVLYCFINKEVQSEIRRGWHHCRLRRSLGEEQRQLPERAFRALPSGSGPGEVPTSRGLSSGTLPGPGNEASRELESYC
In short: (§1)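 Transiently transfected CHO-K1 cells expressing WT or mutant GIPR were washed in F-12 with 0.1% BSA or 0.1% casein and 33 mM HEPES, then incubated 2 h at 37 °C. After ice-cold PBS washes, cells were lysed and bound radioactivity counted (CPM).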

GIPR [2] = biological target: T2, GIPR (Homo sapiens, UniProt P48546, E135A); conditions: GIPR E135A, CHO-K1
T2 sequence (P48546 22-466 E135A): T1 sequence (P48546 22-466 Q138A/D191A/R196A) with E114A, A117Q, A170D, A175R
In short: as §1

GIPR [3] = biological target: T3, GIPR (Homo sapiens, UniProt P48546, Q285A); conditions: GIPR Q285A, CHO-K1
T3 sequence (P48546 22-466 Q285A): T1 sequence (P48546 22-466 Q138A/D191A/R196A) with A117Q, A170D, A175R, Q264A
In short: as §1

[4] = read-out: binding pIC50 (converted)

## CCCCCCCCCCCCCCCC(=O)N[C@@H](CCC(=O)NCCCC[C@H](NC(=O)[C@H](CC(=O)O)NC(=O)[C@H](CO)NC(=O)[C@@H](NC(=O)[C@H](Cc1ccccc1)NC(=O)[C@@H](NC(=O)CNC(=O)[C@H](CCC(N)=O)NC(=O)C(C)(C)NC(=O)[C@@H](N)Cc1c[nH]cn1)[C@@H](C)O)[C@@H](C)O)C(=O)N[C@@H](CO)C(=O)N[C@@H](CCCCN)C(=O)N[C@@H](Cc1ccc(O)cc1)C(=O)N[C@@H](CC(C)C)C(=O)N[C@@H](CC(=O)O)C(=O)N[C@@H](CCC(=O)O)C(=O)N[C@@H](CCCNC(=N)N)C(=O)N[C@@H](C)C(=O)N[C@@H](C)C(=O)N[C@@H](CCC(N)=O)C(=O)N[C@@H](CC(=O)O)C(=O)N[C@@H](Cc1ccccc1)C(=O)N[C@H](C(=O)N[C@@H](CCC(N)=O)C(=O)N[C@@H](Cc1c[nH]c2ccccc12)C(=O)N[C@@H](CC(C)C)C(=O)N[C@@H](CC(C)C)C(=O)N[C@@H](CC(=O)O)C(=O)NCC(=O)NCC(=O)N1CCC[C@H]1C(=O)N[C@@H](CO)C(=O)N[C@@H](CO)C(=O)NCC(=O)N[C@@H](C)C(=O)N1CCC[C@H]1C(=O)N1CCC[C@H]1C(=O)N1CCC[C@H]1C(=O)N[C@@H](CO)C(N)=O)C(C)C)C(=O)O [Peptide 20]
GIPR [1]
  binding Span: 1.03 ± 0.94 % WT
GIPR [1]; [4]
  IC50: 2.4 nM
GIPR [2]
  binding Span: 64.00 ± 2.46 % WT
GIPR [2]; [4]
  IC50: 5.62 nM
GIPR [3]
  binding Span: 108.98 ± 3.60 % WT
GIPR [3]; [4]
  IC50: 13.5 nM
